Assay results published in patent US20130197047A1, “OPHTHALMIC COMPOSITIONS OF PARASYMPATHETIC STIMULANTS AND ANTI-INFLAMMATORIES FOR USE IN THE TREATMENT OF PRESBYOPIA” (priority 2006, published 2013).
Where a name gives a salt, the structure may show the parent alone.

What was measured:
Presbiopic patients = test: Topical eye-drop treatment of presbyopic patients (100 patients, 4 groups), follow-up of near and distant visual sharpness and tolerance; assay type: in vivo, human; settings: of 100 patients treated
Procedure: 100 Presbiopic patients of both sexes, of age 40 to 65, were treated with the compositions of the invention. Exclusion criteria concerned patients with myopia or astigmatism higher than 1 dioptre, and hypermetropia greater than 3 dioptres as well as those with corneal, lens and vitreous opacitis, and chronic general pathologies. 4 Different groups of presbyopic population were differentiated: Group 1: Pure presbyopics Group 2: Presbyopics with hypermetropia Group 3: Presbyopics with phorias Group 4: Presbyopics with glaucoma Patients of all groups were treated with eye drops of different concentrations and combinations of medicaments acting on the ocular sympathetic innervation. Pure presbyopic patients (Group 1) were topically treated with 1% pilocarpine hydrochloride+0.5% diclofenac sodium, at 6 hr intervals during the daily hours; treatment was suspended at night. Presbyopics with hypermetropia (Group 2) were topically treated with 2% pilocarpine hydrochloride+0.5% diclofenac sodium, at 6 hr intervals during the daily hours. […] All patients were monitored after one week treatment and monthly during the first three months to evaluate dosage and side-effects. […]

presbyopic patient = settings: does not solve blurred distant vision; cited from earlier work

| SMILES | patients showed intolerance (diarrhoea and dyspepsia) (Presbiopic patients) [patients] | result of topical application to presbyopic patient (presbyopic patient) |
| --- | --- | --- |
| CC[C@@H]1C(=O)OC[C@@H]1Cc1cncn1C [pilocarpine hydrochloride] | 2 | – |
| CNC(=O)Oc1ccc2c(c1)[C@]1(C)CCN(C)[C@@H]1N2C [physostygmine] | – | poor results |
